Reference: patent US10221171B2, “Oxathiazole thiazolium Hsp 70 inhibitors” (THE REGENTS OF THE UNIVERSITY OF CALIFORNIA, priority 2015, dated 2019)
Read-outs that look alike come from different tables or passages of the source.

Tests used:
Assay type in all cases: cell-based
MEF (C57BL/6) = test: MTT cell viability assay, MEF (C57BL/6); details: Mus musculus
Description: (§1) Cells were then treated with compound at various concentrations in 0.2 mL media. After the 72-hour incubation period, cells were washed in PBS (3×100 μL), and 10 μL MTT reagent was added with 100 μL fresh media. Cells were then incubated for 4 hr in a humidified chamber at 37° C. with 5% CO2. Insoluble formazan crystals were solubilized by addition of 0.1 mL detergent solution (4 hr at room temp., dark). Resulting colored solutions were then quantified at an absorbance of 570 nm.

MDA-MB-231 = test: MTT cell viability assay, MDA-MB-231; details: Homo sapiens
Description: as §1

MCF-7 = test: MTT cell viability assay, MCF-7; details: Homo sapiens, read-out: IC50/μM MCF-7
Description: as §1

[1] = 72 h, read-out: IC50/μM MEF (C57BL/6), MTT, 72-hour incubation
[2] = MDA-MB-231, 72 h, 72-hour incubation
[3] = MCF7, 72 h, MTT, 72-hour incubation
[4] = MTT, 72-hour incubation, read-out: IC50/μM MEF (C57BL/6)

Row | SMILES | IC50 (MEF (C57BL/6); [1]) | IC50 (MDA-MB-231; [2]) | IC50 (MCF-7; [3]) | IC50 (MEF (C57BL/6); [4]) | IC50 (MDA-MB-231; MDA-MB-231, 72-hour incubation) | IC50 (MCF-7; MCF7, MTT, 72-hour incubation) | IC50 (MCF-7; MCF7, 72 h)
1 | CCn1c(=O)/c(=C2\Sc3cc(C)ccc3N2C)s/c1=C\c1scc[n+]1Cc1ccccc1OC(F)(F)F [JG-270] | 0.75 ± 0.05 µM | 0.077 ± 0.009 µM | 0.064 ± 0.005 µM | – | – | – | –
2 | CCn1c(=O)/c(=C2\Sc3cc(F)ccc3N2C)s/c1=C\c1scc[n+]1Cc1occc1C(=O)OC [JG-266] | – | – | – | 2.7 ± 0.2 µM | 0.3 ± 0.02 µM | 0.87 ± 0.11 µM | –
3 | CCn1c(=O)/c(=C2\Sc3cc(F)ccc3N2C)s/c1=C\c1scc[n+]1Cc1c(C)cccc1C [JG-334] | – | – | – | 1.4 ± 0.1 µM | 0.38 ± 0.04 µM | 0.32 ± 0.03 µM | –
4 | CCn1c(=O)/c(=C2\Sc3cc(SC)ccc3N2C)s/c1=C\c1scc[n+]1Cc1ccccc1OC [JG-358] | – | – | – | 1.6 ± 0.1 µM | 0.11 ± 0.01 µM | 0.22 ± 0.01 µM | –
5 | CCc1ccc2c(c1)S/C(=c1/s/c(=C\c3scc[n+]3Cc3c(Cl)cccc3Cl)n(CC)c1=O)N2C [JG-342] | – | – | 0.093 ± 0.007 µM | 0.3 ± 0.1 µM | 0.1 ± 0.01 µM | – | –
6 | CCn1c(=O)/c(=C2\Sc3cc(Br)ccc3N2C)s/c1=C\c1scc[n+]1Cc1ccsc1 [JG-278] | – | – | – | 3.4 ± 0.2 µM | 0.23 ± 0.04 µM | 0.39 ± 0.06 µM | –
7 | CCn1c(=O)/c(=C2\Sc3cc(Cl)ccc3N2C)s/c1=C\c1scc[n+]1Cc1ccccc1CO [JG-329] | – | – | – | 7.3 ± 2.1 µM | 0.39 ± 0.06 µM | 0.58 ± 0.1 µM | –
8 | CCc1ccc2c(c1)S/C(=c1/s/c(=C\c3scc[n+]3Cc3ccsc3C(=O)OC)n(CC)c1=O)N2C [JG-299] | – | – | – | 0.92 ± 0.04 µM | 0.071 ± 0.009 µM | 0.083 ± 0.007 µM | –
9 | CCn1c(=O)/c(=C2\Sc3cc(SC)ccc3N2C)s/c1=C\c1scc[n+]1Cc1c(C)cccc1C [JG-355] | – | – | – | 1.5 ± 0.1 µM | 0.21 ± 0.01 µM | 0.28 ± 0.02 µM | –
10 | C=CCn1c(=O)/c(=C2\Sc3cc(C)ccc3N2C)s/c1=C\c1scc[n+]1Cc1ccccc1 [JG-341] | – | – | – | 1.6 ± 0.1 µM | 0.11 ± 0.01 µM | 0.15 ± 0.01 µM | –
11 | CCn1c(=O)/c(=C2\Sc3cc(OC)ccc3N2C)s/c1=C\c1scc[n+]1Cc1c(Cl)cccc1Cl [JG-348] | – | – | – | 1.1 ± 0.1 µM | 0.1 ± 0.01 µM | 0.1 ± 0.01 µM | –
12 | CCn1c(=O)/c(=C2\Sc3cc(F)ccc3N2C)s/c1=C\c1scc[n+]1Cc1ccccc1OC [JG-264] | – | – | – | 1.4 ± 0.1 µM | 0.24 ± 0.03 µM | 0.49 ± 0.04 µM | –
13 | CCn1c(=O)/c(=C2\Sc3cc(Cl)ccc3N2C)s/c1=C\c1scc[n+]1Cc1nc(C)sc1C [JG-274] | – | – | – | 4.2 ± 0.4 µM | 0.08 ± 0.008 µM | 0.098 ± 0.008 µM | –
14 | CCn1c(=O)/c(=C2\Sc3ccc(C)cc3N2C)s/c1=C\c1scc[n+]1Cc1ccccc1OC(F)(F)F [JG-368] | 1.4 ± 0.1 µM | 0.18 ± 0.01 µM | 0.089 ± 0.006 µM | – | – | – | –
15 | CCn1c(=O)/c(=C2\Sc3ccc(C)cc3N2C)s/c1=C\c1scc[n+]1Cc1ccccc1C [JG-366] | – | – | – | 0.99 ± 0.04 µM | 0.22 ± 0.02 µM | 0.19 ± 0.01 µM | –
16 | CCn1c(=O)/c(=C2\Sc3cc(Cl)ccc3N2C)s/c1=C\c1scc[n+]1CCc1ccccc1C [JG-391] | – | – | – | 2.5 ± 0.2 µM | 0.26 ± 0.01 µM | 0.68 ± 0.04 µM | –
17 | CCn1c(=O)/c(=C2\Sc3cc(Br)ccc3N2C)s/c1=C\c1scc[n+]1Cc1ccccc1C [JG-290] | – | – | – | 1.7 ± 0.1 µM | 0.21 ± 0.02 µM | 0.16 ± 0.01 µM | –
18 | C=CCn1c(=O)/c(=C2\Sc3cc(Cl)ccc3N2C)s/c1=C\c1scc[n+]1Cc1ccccc1 [JG-280] | 2.4 ± 0.1 µM | – | 0.17 ± 0.02 µM | – | 0.1 ± 0.01 µM | – | –
19 | CCn1c(=O)/c(=C2\Sc3cc(SC)ccc3N2C)s/c1=C\c1scc[n+]1Cc1ccccc1C [JG-310] | – | – | – | 2.2 ± 0.2 µM | 0.11 ± 0.01 µM | 0.23 ± 0.04 µM | –
20 | CN1/C(=c2\s/c(=C\c3scc[n+]3Cc3ccccc3)n(C)c2=O)Sc2cc(Cl)ccc21 [JG-281] | – | – | – | 5.7 ± 0.3 µM | 0.16 ± 0.02 µM | 0.6 ± 0.06 µM | –
21 | CCn1c(=O)/c(=C2\Sc3cc(Cl)ccc3N2C)s/c1=C\c1scc[n+]1Cc1cccc(Cl)c1 [JG-271] | 0.69 ± 0.03 µM | 0.51 ± 0.06 µM | 0.26 ± 0.02 µM | – | – | – | –
22 | CCn1c(=O)/c(=C2\Sc3cc(Cl)ccc3N2C)s/c1=C\c1scc[n+]1Cc1ccccc1Br [JG-307] | – | – | – | 1.1 ± 0.1 µM | 0.13 ± 0.02 µM | 0.12 ± 0.01 µM | –
23 | CCn1c(=O)/c(=C2\Sc3cc(Cl)ccc3N2C)s/c1=C\c1scc[n+]1Cc1c(Cl)cccc1Cl [JG-337] | 1.4 ± 0.1 µM | 0.16 ± 0.01 µM | 0.16 ± 0.01 µM | – | – | – | –
24 | CCn1c(=O)/c(=C2\Sc3cc(Cl)ccc3N2C)s/c1=C\c1scc[n+]1CCc1cccc(Cl)c1 [JG-381] | – | – | – | 2.3 ± 0.2 µM | 0.62 ± 0.05 µM | 0.55 ± 0.03 µM | –
25 | CCn1c(=O)/c(=C2\Sc3cc(SC)ccc3N2C)s/c1=C\c1scc[n+]1Cc1cc(C)sc1C [JG-359] | – | – | – | 1.6 ± 0.1 µM | 0.25 ± 0.01 µM | 0.21 ± 0.01 µM | –
26 | CCn1c(=O)/c(=C2\Sc3cc(C(C)C)ccc3N2C)s/c1=C\c1scc[n+]1Cc1ccccc1OC(F)(F)F [JG-325] | 0.48 ± 0.02 µM | 0.21 ± 0.01 µM | – | – | – | – | 0.09 ± 0.005 µM
